Patent publication US20230312529A1, “PYRIMIDINE SMALL-MOLECULE COMPOUND AND APPLICATION THEREOF” (WENZHOU MEDICAL UNIVERSITY, priority 2021, published 2023)
Where two headings read alike, the source gives them in different places.

Assays:
[1] = test system: human cerebrovascular pericytes (HBVP); test: MTT assay on human neovascular cells; assay type: cell-based
ABL1 = ABL1 (Homo sapiens (Human), UniProt P00519); test: Caliper Mobility Shift kinase inhibition test; assay type: biochemical; conditions: 100 nM; read-out: inhibitory rate on ABL1
Procedure: (§1) The method adopted in the test was Caliper Mobility Shift Assay, which was a detection platform based on the mobility detection technology of microfluidic chip technology. […] Collected data was tested on Caliper to yield that inhibition ratio to kinase activity=(max−conversion)/(max−min)×100. “max” was DMSO control without adding compound, and “min” was low control. When IC50 was determined, each sample was provided with 10 dilutions, each with 2 multiple holes, and repeated for 3 times.

PDGFRα = PDGFRα (Homo sapiens (Human), UniProt P16234); test: Caliper Mobility Shift kinase inhibition test; assay type: biochemical; conditions: for inhibition at 0.1 µM: 100 nM
Procedure: as §1

osteosarcoma cells MNNG = test: Metastasis (scratch migration) test of osteosarcoma cells; assay type: cell-based; conditions: 0.1, 0.2 and 0.4 uM, compared with positive drugs
Procedure: (§2) The cells were washed with sterile PBS for three times, and basal medium containing 2.5 μL of TCS was added respectively. Photographs were taken at 0 hour, 24 hours and 48 hours under an inverted microscope, and migration distances were measured with Imag J software.

osteosarcoma cells MG63 = test: as above; assay type: cell-based; conditions: 0.1, 0.2 and 0.4 uM, compared with positive drugs
Procedure: as §2

FGFR2 = FGFR2 (Homo sapiens (Human), UniProt P21802); test: Caliper Mobility Shift kinase inhibition test; assay type: biochemical; conditions: for inhibition at 0.1 µM: 100 nM
FGFR2, sequence (P21802 22-821, species assumed): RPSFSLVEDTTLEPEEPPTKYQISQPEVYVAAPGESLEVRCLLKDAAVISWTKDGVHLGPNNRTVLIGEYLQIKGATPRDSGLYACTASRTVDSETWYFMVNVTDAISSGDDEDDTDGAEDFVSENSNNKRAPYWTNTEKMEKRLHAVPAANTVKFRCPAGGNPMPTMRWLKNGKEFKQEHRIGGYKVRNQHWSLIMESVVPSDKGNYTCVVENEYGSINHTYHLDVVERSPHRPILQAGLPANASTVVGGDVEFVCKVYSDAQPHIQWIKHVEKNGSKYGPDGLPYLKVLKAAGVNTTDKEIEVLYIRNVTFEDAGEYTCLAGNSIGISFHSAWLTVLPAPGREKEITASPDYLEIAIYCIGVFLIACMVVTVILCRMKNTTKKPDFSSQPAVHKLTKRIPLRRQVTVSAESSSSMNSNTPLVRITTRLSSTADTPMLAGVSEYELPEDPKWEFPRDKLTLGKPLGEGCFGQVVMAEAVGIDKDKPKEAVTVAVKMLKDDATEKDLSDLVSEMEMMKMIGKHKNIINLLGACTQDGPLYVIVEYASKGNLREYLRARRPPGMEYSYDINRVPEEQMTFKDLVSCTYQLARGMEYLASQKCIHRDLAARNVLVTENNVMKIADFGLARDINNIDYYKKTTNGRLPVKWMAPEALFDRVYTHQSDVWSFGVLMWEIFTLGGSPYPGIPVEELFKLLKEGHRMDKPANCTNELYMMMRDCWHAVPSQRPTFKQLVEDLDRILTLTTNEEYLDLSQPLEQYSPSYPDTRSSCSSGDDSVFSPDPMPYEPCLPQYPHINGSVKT
Procedure: (§3) The method adopted in the test was Caliper Mobility Shift Assay, which was a detection platform based on the mobility detection technology of microfluidic chip technology. Test steps: 1.25× kinase reaction buffer (62.5 mmol/L HEPES, pH 7.5; 0.001875% Brij-35; 12.5 mmol/L MgCl2; 2.5 mM DTT) and kinase reaction stop solution (100 mmol/L HEPES, pH 7.5; 0.015% Brij-35; 0.2% Coating Reagent #3) were configured. […] Collected data was tested on Caliper to yield that inhibition ratio to kinase activity=(max−conversion)/(max−min)×100. “max” was DMSO control without adding compound, and “min” was low control. When IC50 was determined, each sample was provided with 10 dilutions, each with 2 multiple holes, and repeated for 3 times.
(§4) According to the above-mentioned method for measuring kinase inhibitory activity, the inhibitory activity of the active compounds on other multiple kinases was measured to characterize the kinase selectivity of active inhibitors.

JAK1 = JAK1 (Homo sapiens (Human), UniProt P23458); test: Caliper Mobility Shift kinase inhibition test; assay type: biochemical; conditions: for inhibition at 0.1 µM: 100 nM
Procedure: as §3, §4

[2] = test system: human brain microvascular endothelial cells (HCMEC/D3); test: MTT assay on human neovascular cells; assay type: cell-based
FLT1 = FLT1 (Homo sapiens (Human), UniProt P17948); test: Kinase selectivity test; assay type: biochemical; conditions: 100 nM
Procedure: as §3, §4

KDR = KDR (Homo sapiens (Human), UniProt P35968); test: Kinase selectivity test; assay type: biochemical; conditions: 100 nM
Procedure: as §3, §4

EGFR L858R/T790M/C797S = EGFR L858R/T790M/C797S (Homo sapiens (Human), UniProt P00533, C797S/L858R/T790M); test: Kinase selectivity test; assay type: biochemical; conditions: 100 nM
EGFR L858R/T790M/C797S, sequence (P00533 25-1210 T790M/C797S/L858R): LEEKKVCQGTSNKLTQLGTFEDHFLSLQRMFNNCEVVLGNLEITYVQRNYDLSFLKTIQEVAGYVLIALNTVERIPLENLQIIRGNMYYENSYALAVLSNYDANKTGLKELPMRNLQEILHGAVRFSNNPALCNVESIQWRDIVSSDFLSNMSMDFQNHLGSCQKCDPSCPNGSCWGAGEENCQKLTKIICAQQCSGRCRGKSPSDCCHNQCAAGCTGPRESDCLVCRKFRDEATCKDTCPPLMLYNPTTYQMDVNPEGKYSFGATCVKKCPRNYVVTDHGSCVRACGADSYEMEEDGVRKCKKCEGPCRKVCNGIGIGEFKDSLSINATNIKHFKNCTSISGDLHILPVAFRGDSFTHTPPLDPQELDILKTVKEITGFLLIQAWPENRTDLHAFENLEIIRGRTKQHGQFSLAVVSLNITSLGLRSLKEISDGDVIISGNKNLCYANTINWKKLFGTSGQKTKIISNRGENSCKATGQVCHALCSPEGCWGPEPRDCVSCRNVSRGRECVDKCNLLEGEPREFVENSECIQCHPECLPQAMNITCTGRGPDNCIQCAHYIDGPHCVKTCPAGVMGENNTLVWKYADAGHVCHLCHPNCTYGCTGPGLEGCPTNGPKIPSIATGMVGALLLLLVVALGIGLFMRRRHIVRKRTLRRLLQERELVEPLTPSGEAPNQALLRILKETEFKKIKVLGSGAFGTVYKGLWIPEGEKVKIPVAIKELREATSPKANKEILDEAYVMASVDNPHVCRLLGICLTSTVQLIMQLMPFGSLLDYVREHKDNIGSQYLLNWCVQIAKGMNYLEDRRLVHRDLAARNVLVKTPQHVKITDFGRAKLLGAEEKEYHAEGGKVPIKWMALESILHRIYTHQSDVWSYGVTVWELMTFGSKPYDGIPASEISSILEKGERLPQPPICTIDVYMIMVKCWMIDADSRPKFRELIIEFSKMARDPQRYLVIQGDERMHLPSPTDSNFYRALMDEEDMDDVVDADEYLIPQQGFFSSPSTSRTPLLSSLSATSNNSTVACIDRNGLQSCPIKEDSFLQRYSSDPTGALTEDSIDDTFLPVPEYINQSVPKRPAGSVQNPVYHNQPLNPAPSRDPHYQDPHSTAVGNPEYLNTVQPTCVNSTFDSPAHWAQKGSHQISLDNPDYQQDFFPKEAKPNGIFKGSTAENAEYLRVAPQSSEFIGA
Procedure: as §3, §4

SRC = SRC (Homo sapiens (Human), UniProt P12931); test: Kinase selectivity test; assay type: biochemical; conditions: 100 nM
SRC, sequence (P12931 whole entry, looked up, species assumed): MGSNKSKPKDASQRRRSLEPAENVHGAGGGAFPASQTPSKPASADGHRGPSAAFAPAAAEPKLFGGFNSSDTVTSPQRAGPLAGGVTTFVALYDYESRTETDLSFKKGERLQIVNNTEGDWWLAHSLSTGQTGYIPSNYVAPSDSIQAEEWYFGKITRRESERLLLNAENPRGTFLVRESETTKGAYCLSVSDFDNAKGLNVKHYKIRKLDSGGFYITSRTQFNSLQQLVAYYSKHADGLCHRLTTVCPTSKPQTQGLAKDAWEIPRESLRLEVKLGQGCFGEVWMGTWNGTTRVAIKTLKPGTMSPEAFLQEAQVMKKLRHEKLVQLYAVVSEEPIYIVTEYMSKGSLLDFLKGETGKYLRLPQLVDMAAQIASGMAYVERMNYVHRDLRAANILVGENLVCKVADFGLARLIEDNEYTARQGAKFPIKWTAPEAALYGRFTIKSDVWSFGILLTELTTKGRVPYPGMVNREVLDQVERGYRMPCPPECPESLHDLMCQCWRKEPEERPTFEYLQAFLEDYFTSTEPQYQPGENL
Procedure: as §3, §4

EGFR L858R = EGFR L858R (Homo sapiens (Human), UniProt P00533, L858R); test: Kinase selectivity test; assay type: biochemical; conditions: 100 nM
EGFR L858R, sequence (P00533 25-1210 L858R): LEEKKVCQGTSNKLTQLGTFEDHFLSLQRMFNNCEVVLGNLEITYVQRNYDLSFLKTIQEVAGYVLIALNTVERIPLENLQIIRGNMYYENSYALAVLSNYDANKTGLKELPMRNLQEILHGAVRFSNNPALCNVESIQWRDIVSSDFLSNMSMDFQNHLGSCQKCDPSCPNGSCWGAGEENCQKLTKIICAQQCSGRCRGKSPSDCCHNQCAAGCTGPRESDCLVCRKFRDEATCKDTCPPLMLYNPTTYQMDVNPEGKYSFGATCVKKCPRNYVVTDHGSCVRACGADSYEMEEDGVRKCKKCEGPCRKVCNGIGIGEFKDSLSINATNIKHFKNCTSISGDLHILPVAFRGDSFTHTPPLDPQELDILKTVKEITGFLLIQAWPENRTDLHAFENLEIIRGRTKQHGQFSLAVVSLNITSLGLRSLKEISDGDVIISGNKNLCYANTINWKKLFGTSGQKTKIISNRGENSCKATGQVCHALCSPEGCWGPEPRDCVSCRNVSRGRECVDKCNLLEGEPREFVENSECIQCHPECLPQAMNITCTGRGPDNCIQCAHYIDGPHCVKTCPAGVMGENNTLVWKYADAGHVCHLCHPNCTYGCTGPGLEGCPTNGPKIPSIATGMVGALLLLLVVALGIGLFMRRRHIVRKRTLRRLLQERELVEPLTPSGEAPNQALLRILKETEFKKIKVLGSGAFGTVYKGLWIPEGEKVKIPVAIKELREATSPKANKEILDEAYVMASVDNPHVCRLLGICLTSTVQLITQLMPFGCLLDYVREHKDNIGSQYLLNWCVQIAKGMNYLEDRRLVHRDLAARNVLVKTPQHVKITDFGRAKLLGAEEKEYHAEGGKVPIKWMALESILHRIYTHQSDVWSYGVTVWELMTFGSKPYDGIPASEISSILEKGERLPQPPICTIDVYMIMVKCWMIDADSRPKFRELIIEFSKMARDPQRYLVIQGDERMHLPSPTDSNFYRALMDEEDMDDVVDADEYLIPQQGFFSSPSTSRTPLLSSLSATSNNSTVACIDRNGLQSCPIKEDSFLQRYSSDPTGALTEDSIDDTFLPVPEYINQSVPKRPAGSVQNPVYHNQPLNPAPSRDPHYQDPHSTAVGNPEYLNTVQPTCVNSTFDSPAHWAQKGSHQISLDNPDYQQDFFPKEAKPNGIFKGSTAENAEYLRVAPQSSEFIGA
Procedure: as §3, §4

EGFR = EGFR (Homo sapiens (Human), UniProt P00533); test: Kinase selectivity test; assay type: biochemical; conditions: 100 nM
Procedure: as §3, §4

EGFR T790M = EGFR T790M (Homo sapiens (Human), UniProt P00533, T790M); test: Kinase selectivity test; assay type: biochemical; conditions: 100 nM
Procedure: as §3, §4

FGFR1 = FGFR1 (Homo sapiens (Human), UniProt P11362); test: Kinase selectivity test; assay type: biochemical; conditions: 100 nM
Procedure: as §3, §4

EGFR/T790M/L858R = EGFR/T790M/L858R (Homo sapiens (Human), UniProt P00533, L858R/T790M); test: Kinase selectivity test; assay type: biochemical; conditions: 100 nM
Procedure: as §3, §4

FGFR3 = FGFR3 (Homo sapiens (Human), UniProt P22607); test: Kinase selectivity test; assay type: biochemical; conditions: 100 nM
FGFR3, sequence (P22607 23-806, species assumed): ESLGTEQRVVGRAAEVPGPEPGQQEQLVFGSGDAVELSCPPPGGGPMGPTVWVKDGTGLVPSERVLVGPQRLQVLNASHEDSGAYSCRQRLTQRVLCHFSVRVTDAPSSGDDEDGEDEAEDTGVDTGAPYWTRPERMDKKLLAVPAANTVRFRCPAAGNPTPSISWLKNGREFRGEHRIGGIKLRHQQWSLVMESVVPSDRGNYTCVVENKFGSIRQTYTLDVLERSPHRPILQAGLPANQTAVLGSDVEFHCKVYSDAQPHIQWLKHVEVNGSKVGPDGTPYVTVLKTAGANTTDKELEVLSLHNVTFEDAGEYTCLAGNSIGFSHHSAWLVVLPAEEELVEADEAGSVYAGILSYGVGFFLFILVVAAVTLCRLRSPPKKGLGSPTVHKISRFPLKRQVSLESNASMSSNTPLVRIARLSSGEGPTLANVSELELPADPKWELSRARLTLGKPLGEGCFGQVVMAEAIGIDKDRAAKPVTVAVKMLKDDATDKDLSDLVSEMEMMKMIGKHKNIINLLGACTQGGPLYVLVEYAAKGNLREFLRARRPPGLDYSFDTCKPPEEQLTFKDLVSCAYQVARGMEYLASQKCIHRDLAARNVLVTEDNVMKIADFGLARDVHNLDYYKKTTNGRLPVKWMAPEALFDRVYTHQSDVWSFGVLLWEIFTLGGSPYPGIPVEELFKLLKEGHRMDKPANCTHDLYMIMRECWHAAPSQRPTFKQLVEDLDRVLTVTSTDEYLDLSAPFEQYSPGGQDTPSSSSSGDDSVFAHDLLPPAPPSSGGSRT
Procedure: as §3, §4

BTK = BTK (Homo sapiens (Human), UniProt Q06187); test: Kinase selectivity test; assay type: biochemical; conditions: 100 nM
Procedure: as §3, §4

[3] = compared with multiple positive drugs

CCN1CCN(c2ccc(Nc3ncc(C)c(Nc4ccc5cn[nH]c5c4)n3)cc2OC)CC1 [Compound 6i, N^2-(4-(4-ethylpiperazine-1-yl)-3-methoxyphenyl)-N^4-(1H-indazol-6-yl)-5-methylpyrimidine-2,4-diamine]
IC50 ([1]; Homo sapiens, MTT, read-out: Inhibitory activity (IC50) HBVP): 550 ± 98 nM
inhibitory activity on HBVP (in words) [1, 3]: strong inhibitory activity
inhibition at 0.1 µM (ABL1): 95.3%
inhibitory activity on PDGFRα (in words) (PDGFRα): significant inhibitory activities
inhibition at 0.1 µM (PDGFRα; average, read-out: Average % inhibition PDGFR α): > 100%
inhibition at 0.1 µM (PDGFRα; replicate 1, read-out: % inhibition 1 PDGFR α): 98.9%
inhibition at 0.1 µM (PDGFRα; replicate 2, read-out: % inhibition 2 PDGFR α): 103%
inhibition at 0.1 µM (PDGFRα; read-out: inhibitory rate on PDGFR-α): 97.5%
IC50 (PDGFRα; read-out: IC50 PDGFR-α): 2.7 nM
inhibitory activity on metastasis (osteosarcoma cells MNNG): strong dose-dependent inhibitory activity
inhibitory activity on metastasis (osteosarcoma cells MG63): strong dose-dependent inhibitory activity
IC50 (FGFR2): 27 nM
inhibition at 0.1 µM (FGFR2; average, read-out: Average % inhibition FGFR2): 83%
inhibition at 0.1 µM (FGFR2; replicate 1, read-out: % inhibition 1 FGFR2): 83.8%
inhibition at 0.1 µM (FGFR2; replicate 2, read-out: % inhibition 2 FGFR2): 82.1%
IC50 (JAK1): 7.7 nM
inhibition at 0.1 µM (JAK1; average, read-out: Average % inhibition JAK1): 90.5%
inhibition at 0.1 µM (JAK1; replicate 1, read-out: % inhibition 1 JAK1): 91.7%
inhibition at 0.1 µM (JAK1; replicate 2, read-out: % inhibition 2 JAK1): 89.3%
IC50 ([2]; Homo sapiens, hCMEC/D3, MTT, read-out: Inhibitory activity (IC50) HCMEC-D3): 230 ± 2 nM
inhibitory activity on HCMEC/D3 (in words) [2, 3]: strong inhibitory activity
inhibition at 0.1 µM (FLT1; average, read-out: Average % inhibition FLT1): 79.7%
inhibition at 0.1 µM (FLT1; replicate 1, read-out: % inhibition 1 FLT1): 78.7%
inhibition at 0.1 µM (FLT1; replicate 2, read-out: % inhibition 2 FLT1): 80.7%
inhibition at 0.1 µM (KDR; average, read-out: Average % inhibition KDR): 71.4%
inhibition at 0.1 µM (KDR; replicate 1, read-out: % inhibition 1 KDR): 71.5%
inhibition at 0.1 µM (KDR; replicate 2, read-out: % inhibition 2 KDR): 71.3%
inhibition at 0.1 µM (EGFR L858R/T790M/C797S; average, read-out: Average % inhibition EGFR L858R/T790M/C797S): 74.5%
inhibition at 0.1 µM (EGFR L858R/T790M/C797S; replicate 1, read-out: % inhibition 1 EGFR L858R/T790M/C797S): 73.4%
inhibition at 0.1 µM (EGFR L858R/T790M/C797S; replicate 2, read-out: % inhibition 2 EGFR L858R/T790M/C797S): 75.7%
inhibition at 0.1 µM (SRC; average, read-out: Average % inhibition SRC): 92.2%
inhibition at 0.1 µM (SRC; replicate 1, read-out: % inhibition 1 SRC): 91%
inhibition at 0.1 µM (SRC; replicate 2, read-out: % inhibition 2 SRC): 93.5%
inhibition at 0.1 µM (EGFR L858R; average, read-out: Average % inhibition EGFR L858R): 62.1%
inhibition at 0.1 µM (EGFR L858R; replicate 1, read-out: % inhibition 1 EGFR L858R): 61.7%
inhibition at 0.1 µM (EGFR L858R; replicate 2, read-out: % inhibition 2 EGFR L858R): 62.6%
inhibition at 0.1 µM (EGFR; average, read-out: Average % inhibition EGFR): 42.3%
inhibition at 0.1 µM (EGFR; replicate 1, read-out: % inhibition 1 EGFR): 40.9%
inhibition at 0.1 µM (EGFR; replicate 2, read-out: % inhibition 2 EGFR): 43.6%
inhibition at 0.1 µM (EGFR T790M; average, read-out: Average % inhibition EGFR T790M): 56.9%
inhibition at 0.1 µM (EGFR T790M; replicate 1, read-out: % inhibition 1 EGFR T790M): 57%
inhibition at 0.1 µM (EGFR T790M; replicate 2, read-out: % inhibition 2 EGFR T790M): 56.8%
inhibition at 0.1 µM (FGFR1; average, read-out: Average % inhibition FGFR1): 65.8%
inhibition at 0.1 µM (FGFR1; replicate 1, read-out: % inhibition 1 FGFR1): 65%
inhibition at 0.1 µM (FGFR1; replicate 2, read-out: % inhibition 2 FGFR1): 66.6%
inhibition at 0.1 µM (EGFR/T790M/L858R; average, read-out: Average % inhibition EGFR/T790M/L858R): 77.2%
inhibition at 0.1 µM (EGFR/T790M/L858R; replicate 1, read-out: % inhibition 1 EGFR/T790M/L858R): 76.6%
inhibition at 0.1 µM (EGFR/T790M/L858R; replicate 2, read-out: % inhibition 2 EGFR/T790M/L858R): 77.9%
inhibition at 0.1 µM (FGFR3; average, read-out: Average % inhibition FGFR3): 10.9%
inhibition at 0.1 µM (FGFR3; replicate 1, read-out: % inhibition 1 FGFR3): 8.1%
inhibition at 0.1 µM (FGFR3; replicate 2, read-out: % inhibition 2 FGFR3): 13.7%
inhibition at 0.1 µM (BTK; average, read-out: Average % inhibition BTK): 50.2%
inhibition at 0.1 µM (BTK; replicate 1, read-out: % inhibition 1 BTK): 49.1%
inhibition at 0.1 µM (BTK; replicate 2, read-out: % inhibition 2 BTK): 51.3%
